As usually defined, the clearance is the rate of elimination divided by the concentration. A word on the bioavailability: it is dose-corrected exposure relative to a reference, in per cent. Lower therefore signals little systemic uptake. Usually Tmax stands for the time at which the peak concentration occurs.

The results in this text go back to patent publication US12344620B2, “BRD4 inhibitor compound in solid form and preparation method therefor and use thereof” (CSPC ZHONGQI PHARMACEUTICAL TECHNOLOGY (SHIJIAZHUANG) CO., …, priority 2019, dated 2025).

Read-outs that look alike come from different tables or passages of the source.

Series [1] is described as follows: In vivo pharmacokinetics test in rat. The following applies: plasma, male SD rats, crystalline form A used; for AUC(0-inf): read-out: Area under curve (0-inf) AUC0-inf; for AUC(0-t): read-out: Area under curve (0-t) AUC0-last; for half-life: read-out: Half life T1/2 (converted). Here is the method: Male SD rats were used as test animals. The compound of formula (I) was administrated intravenously and intragastrically to rats, and then the drug concentrations in the plasma at different time points were determined by the LC/MS/MS method. The in vivo pharmacokinetic behavior of the compound of formula (I) in rats was studied, and its pharmacokinetic characteristics were evaluated.
1.1 Experiment Drug: The Compound of Formula (I) (the Crystalline Form A)
4 healthy adult male SD rats were divided into 2 groups according to the similar weight principle, with 2 rats in each group. The animals were commercially available from Beijing Weitonglihua Laboratory Animals Ltd., animal production license number: SCXK (Beijing) 2016-0006.
An appropriate amount of the sample was taken, 5% final volume of DMSO was added, and then 95% final volume of 20% HP-β-CD was added. The mixture was ultrasonically stirred to obtain a 0.5 mg/mL clear solution. After filtration, it was used for the intravenous administration.
An appropriate amount of the sample was taken, and dissolved in a 0.5% sodium carboxymethyl cellulose solution. The mixture was ultrasonically stirred to obtain a 1 mg/mL homogeneous suspension, which was used for the intragastric administration.
Four male SD rats were divided into two groups. After fasting overnight, the first group was administered intravenously with the administration volume of 4 mL/kg and the dosage of 2 mg/kg. The second group was administered intragastrically with the administration volume of 10 mL/kg and the dosage of 10 mg/kg.
After the male SD rats were intravenously administrated, 100 μL of blood was taken at each time point of 0.0833, 0.25, 0.5, 1, 2, 4, 6, 8 and 24 hours, and placed in test tubes containing 2 μL of EDTA-K2; and after the SD rats were intragastrically administrated, 100 μL of blood was taken at each time point of 0.0833, 0.25, 0.5, 1, 2, 4, 6, 8 and 24 hours, and placed in test tubes containing 2 μL of EDTA-K2. The tube was centrifuged at 3000 g for 15 minutes to separate the plasma, and the separated plasma was stored at −60° C. Animals could be fed 2 hours after the administration.
The LC/MS/MS method was used to measure the content of the compound to be tested in the plasma after the intravenous and intragastric administration to the rats. The linear range of the method was 2.00-6000 nmol/L; the plasma samples were analyzed after the protein precipitation by acetonitrile treatment.

In series [2] the test system is Human breast cancer MDA-MB-231_luc cells. The series is described as follows: In vivo pharmacodynamics, MDA-MB-231_luc subcutaneous xenograft tumor model. The following applies: 50 mg/kg PO BID x 21 days. How it is done: • Species: mouse • Strain: BALB/c nude mouse • Week-age and weight: 6-8 weeks of age, 18-22 grams of body weight • Sex: Female • Supplier: Shanghai Sippr-BK laboratory animal Co. Ltd.
Human breast cancer MDA-MB-231_luc cells were cultured in monolayer in vitro and the culture conditions were RPMI-1640 culture medium (supplier: Gibco; article number: 22400-089; manufacturing batch number: 4868546) with 10% fetal bovine serum, 100 U/ml penicillin and 100 μg/mL streptomycin. The culture was performed at 37° C. in 5% CO2. Conventional digestion treatment with pancreatin-EDTA for passage was carried out twice a week. When the cells were in the exponential growth phase, the cells were harvested, counted, and inoculated. […]
The experiment index was to investigate whether tumor growth was inhibited, delayed or cured. Tumor diameter was measured twice a week with vernier calipers. […]
The tumor inhibition effect of the compound was evaluated by TGI (%) or relative tumor proliferation rate T/C (%). […]
Relative tumor proliferation rate T/C (%) was calculated according to the below equation: T/C %=TRTV/CRTV×100% (TRTV: RTV of the treatment group; CRTV: RTV of the negative control group). The relative tumor volume (RTV) was calculated according to the results of the tumor measurement. […]

The subject of series [3] is Mouse colon cancer MC38 cells. The series is described as follows: In vivo anti-tumor effect, MC38 mouse colon cancer transplantation tumor model. The following applies: 15, 25 and 50 mg/kg PO BID x 20 days. How it is done: • Species: mouse • Strain: C57BL6 mouse • Week-age and weight: 6-7 weeks of age, 16-20 grams of body weight • Sex: Female • Supplier: Shanghai SLAC Laboratory Animal Co., Ltd.
Mouse colon cancer MC38 cells (OBiO Technology (Shanghai) Corp., Ltd.) were cultured in monolayer in vitro, and the culture conditions were DMEM culture medium (Gibco; article number: 12100) with 10% fetal bovine serum at 37° C. in 5% CO2 in an incubator. Conventional digestion treatment with 0.25% pancreatin-EDTA for passage was carried out. When the cells were in the exponential growth phase and the density was 80%-90%, the cells were harvested, counted, and inoculated. […]
Tumor diameter was measured twice a week with vernier calipers. […]
The tumor inhibition effect of the compound was evaluated by TGI (%) or relative tumor proliferation rate T/C (%). […] The relative tumor volume (RTV) was calculated according to the results of the tumor measurement. The calculation equation was RTV=Vt/V0, where V0 was the average tumor volume measured at the grouping and administration (i.e. D0), and Vt was the average tumor volume at the time of a certain measurement. […]
Statistical analysis was performed using SPSS software based on the tumor volume and the tumor weight at the end of the experiment. The comparison between two groups was analyzed by t-test, and the comparison between three or more groups was analyzed by one-way ANOVA.

Consider `Cc1sc2c(c1C)C(c1ccc(Cl)cc1)=N[C@@H](CC(=O)Nc1ccc3c(c1)COC3=O)c1nnc(C)n1-2` [Compound of formula (I)], for which the Vd in series [1] (intravenous, 2 mg/kg, read-out: Apparent distribution Vdss) was found to be 1.48 L/kg. Also, in series [1] (intravenous, 2 mg/kg), the AUC(0-inf) was found to be 2.22 µM·h, the AUC(0-t) amounted to 2.21 µM·h and the half-life is 0.683 h. Besides, the clearance in series [1] (intravenous, 2 mg/kg, read-out: Clearance rate Cl) is 28.3 mL/min/kg. In series [1] (po, intragastric, 10 mg/kg), the bioavailability was 29.3%, the AUC(0-inf) is 3.25 µM·h, the AUC(0-t) was 3.22 µM·h and the half-life is 1.01 h. For the same compound, in series [1] (po, intragastric, 10 mg/kg, read-out: Drug concentration in blood Cmax), the Cmax was found to be 1160 nM. Further, in series [1] (po, intragastric, 10 mg/kg, read-out: Time to peak Tmax), the Tmax was determined as 1 h. Besides, in series [2], the “change in body weight of the animals” value is “no significant change” and the tolerability result was “well tolerated”. Besides, in series [3], the tolerance entry was “good tolerance”.
